Here are results for one compound from patent US20230248652A1, “BIODEGRADEABLE MULTI-CAVITY MICROPARTICLES AND THEIR USE IN TREATMENT” (OXFORD UNIVERSITY INNOVATION LIMITED, priority 2020, published 2023).

This experiment deals with 3D foam cell spheroid. The experiment in a line: HIFU implantation of loaded mcPLGA MPs into 3D foam cell spheroids (fluorescence). In kind it is cell-based, human. The settings on record: HIFU exposure, 1 mg/ml. How it is done: As the cells in the ex vivo porcine artery were considered non-viable, we have also tested the ability to deliver DAPI to viable cells using a 3D foam cell spheroid model (FIG. 13).
THP-1 cells, a human monocytic cell line (ATCC, Rockville, MD) were routinely cultured in Roswell Park Memorial Institute (RPMI) 1640 Medium supplemented with 100 IU/ml of penicillin, 100 µg/ml streptomycin, 2 mmol/l L-glutamine, 10% (vol/vol) FBS and incubated in a humidified atmosphere of 5% CO2 in an incubator at 37° C. The medium was replaced every 2-3 days by centrifuging these suspended cells at 125 g for 5 min. For differentiation of THP-1 monocytes into macrophages, THP-1 cells were seeded at a density of 7 × 10^5 cells/ml with differentiation medium, growth medium supplemented with 50 ng/mL phorbol 12-myristate 13-acetate (PMA), for 3 days to obtain macrophages. Subsequently, for foam cells induction, macrophages were incubated with 100 µg/ml oxLDL (Low Density Lipoprotein from Human Plasma, oxidized; Invitrogen,USA) in the differentiation medium for 2 days.
Foam cells were used to produce a three-dimensional (3D) foam cell spheroid model by modification of the hanging drop method. Single-cell suspensions were generated from trypsinized monolayers. […]
Fluorescence microscopy was used to analyze the distribution of mcPLGA MPs and the release of therapeutics (FIG. 27c). […]

For `N=C(N)c1ccc(-c2cc3ccc(C(=N)N)cc3[nH]2)cc1` [DAPI], the “delivery of DAPI / particle distribution in foam cell spheroid” value is given as “diffused through the membranes of the cells to stain the DNA of the foam cells”.
